Tested on: not listed separately
Experiment: Displacement of [3H]epibatidine from alpha6/4beta4 nicotinic receptor expressed in human HEK293 cells
Type: cell-based
Details: not given; call rule not given here

Row | SMILES | Ki [µM]
1 | c1cncc(-c2ccccc2O[C@@H]2C[C@H]3CNC[C@@H]2C3)c1 | 0.0785
2 | Cl.Oc1ccncc1-c1ccccc1O[C@H]1C[C@@H]2CNC[C@H]1C2 (racemic) | 0.00315
3 | Cl.c1cncc(-c2ccccc2O[C@H]2C[C@@H]3CNC[C@H]2C3)c1 | 0.00215
4 | CS(=O)(=O)Nc1cncc(-c2ccccc2O[C@@H]2C[C@H]3CNC[C@@H]2C3)c1.Cl | 0.00373
5 | NC(=O)c1cncc(-c2ccccc2O[C@@H]2C[C@H]3CNC[C@@H]2C3)c1 (stereo in doubt) | 1.13
6 | CS(=O)(=O)Nc1cncc(-c2ccccc2O[C@H]2C[C@@H]3CNC[C@H]2C3)c1.Cl (racemic) | 0.000241
7 | Cl.NC(=O)c1cncc(-c2ccccc2O[C@H]2C[C@@H]3CNC[C@H]2C3)c1 (stereo in doubt) | 0.0125

Molecular target: Acetylcholine receptor; alpha1/beta1/delta/gamma (Homo sapiens, UniProt P02708+P07510+P11230+Q07001)
Experiment: Binding affinity to alpha-1-beta-gamma-delta nicotinic receptor
Type: protein-complex assay
Details: not given

Acetylcholine receptor; alpha1/beta1/delta/gamma, sequence (P02708 whole entry): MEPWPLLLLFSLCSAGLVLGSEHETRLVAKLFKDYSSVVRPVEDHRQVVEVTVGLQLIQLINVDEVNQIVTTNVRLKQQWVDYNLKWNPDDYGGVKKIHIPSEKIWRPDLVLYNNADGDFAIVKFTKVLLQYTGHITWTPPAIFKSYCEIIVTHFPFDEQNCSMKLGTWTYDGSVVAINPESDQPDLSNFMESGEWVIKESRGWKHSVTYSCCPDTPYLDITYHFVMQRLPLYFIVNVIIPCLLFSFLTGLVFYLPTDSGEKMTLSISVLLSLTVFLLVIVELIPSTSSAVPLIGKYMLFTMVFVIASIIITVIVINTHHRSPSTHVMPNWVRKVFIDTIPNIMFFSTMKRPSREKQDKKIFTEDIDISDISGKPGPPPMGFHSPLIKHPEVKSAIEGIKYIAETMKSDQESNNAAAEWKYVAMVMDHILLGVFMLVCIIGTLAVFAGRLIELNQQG
Acetylcholine receptor; alpha1/beta1/delta/gamma, sequence (P07510 whole entry): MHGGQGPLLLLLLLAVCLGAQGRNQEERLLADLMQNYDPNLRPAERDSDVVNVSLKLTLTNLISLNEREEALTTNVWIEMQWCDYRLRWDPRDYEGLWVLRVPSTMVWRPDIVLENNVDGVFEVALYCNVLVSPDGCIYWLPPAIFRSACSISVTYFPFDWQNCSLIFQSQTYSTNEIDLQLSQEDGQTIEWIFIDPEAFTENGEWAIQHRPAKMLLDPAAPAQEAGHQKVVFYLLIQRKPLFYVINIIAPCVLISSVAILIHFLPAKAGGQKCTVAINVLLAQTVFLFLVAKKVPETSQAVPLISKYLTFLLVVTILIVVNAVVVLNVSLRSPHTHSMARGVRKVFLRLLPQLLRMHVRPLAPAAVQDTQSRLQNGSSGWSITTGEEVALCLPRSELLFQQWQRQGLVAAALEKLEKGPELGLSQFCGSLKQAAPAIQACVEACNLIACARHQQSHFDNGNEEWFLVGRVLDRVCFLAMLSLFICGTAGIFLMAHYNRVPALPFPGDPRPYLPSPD
Acetylcholine receptor; alpha1/beta1/delta/gamma, sequence (P11230 whole entry): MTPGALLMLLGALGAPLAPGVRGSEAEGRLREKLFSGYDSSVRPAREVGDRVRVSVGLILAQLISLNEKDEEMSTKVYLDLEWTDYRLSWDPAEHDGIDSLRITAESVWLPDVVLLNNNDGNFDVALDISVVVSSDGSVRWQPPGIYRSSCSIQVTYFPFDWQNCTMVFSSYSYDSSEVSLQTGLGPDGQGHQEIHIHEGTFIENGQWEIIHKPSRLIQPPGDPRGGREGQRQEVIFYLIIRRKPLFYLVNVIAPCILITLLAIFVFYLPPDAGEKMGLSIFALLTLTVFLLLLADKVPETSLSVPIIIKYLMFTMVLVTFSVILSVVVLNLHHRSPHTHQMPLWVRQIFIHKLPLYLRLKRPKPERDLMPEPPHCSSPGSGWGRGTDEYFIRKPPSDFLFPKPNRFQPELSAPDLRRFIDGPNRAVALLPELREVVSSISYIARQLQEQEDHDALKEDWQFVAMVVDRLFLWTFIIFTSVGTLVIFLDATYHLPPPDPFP
Acetylcholine receptor; alpha1/beta1/delta/gamma, sequence (Q07001 whole entry): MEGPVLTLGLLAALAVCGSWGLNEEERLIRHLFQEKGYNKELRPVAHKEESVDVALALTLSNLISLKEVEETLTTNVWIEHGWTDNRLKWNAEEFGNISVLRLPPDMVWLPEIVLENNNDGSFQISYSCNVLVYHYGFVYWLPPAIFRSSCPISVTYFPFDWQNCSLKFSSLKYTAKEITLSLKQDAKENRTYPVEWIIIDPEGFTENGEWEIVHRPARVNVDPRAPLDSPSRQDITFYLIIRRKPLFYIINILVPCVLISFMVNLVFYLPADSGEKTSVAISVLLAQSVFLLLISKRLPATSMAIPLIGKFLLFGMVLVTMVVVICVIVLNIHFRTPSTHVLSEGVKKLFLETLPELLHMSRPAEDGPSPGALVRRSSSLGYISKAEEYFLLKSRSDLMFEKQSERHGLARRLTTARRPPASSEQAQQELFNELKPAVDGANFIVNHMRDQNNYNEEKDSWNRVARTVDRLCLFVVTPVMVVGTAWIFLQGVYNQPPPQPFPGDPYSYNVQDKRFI

Row | SMILES | Ki [µM]
8 | Cl.Oc1ccncc1-c1ccccc1O[C@H]1C[C@@H]2CNC[C@H]1C2 (racemic) | > 15.3
9 | Cl.c1cncc(-c2ccccc2O[C@H]2C[C@@H]3CNC[C@H]2C3)c1 | 1.02
10 | CS(=O)(=O)Nc1cncc(-c2ccccc2O[C@@H]2C[C@H]3CNC[C@@H]2C3)c1.Cl | > 15
11 | CS(=O)(=O)Nc1cncc(-c2ccccc2O[C@H]2C[C@@H]3CNC[C@H]2C3)c1.Cl (racemic) | > 13.5
12 | Cl.NC(=O)c1cncc(-c2ccccc2O[C@H]2C[C@@H]3CNC[C@H]2C3)c1 (stereo in doubt) | > 15

Tested on: not listed separately
Experiment: Agonist activity at human alpha6/4beta4 nicotinic receptor expressed in human HEK cells assessed as intracellular calcium […] by FLIPR relative to control
Type: functional, HEK293
Details: not given

Row | SMILES | Efficacy [%]
13 | Cl.Oc1ccncc1-c1ccccc1O[C@H]1C[C@@H]2CNC[C@H]1C2 (racemic) | 91
14 | Cl.c1cncc(-c2ccccc2O[C@H]2C[C@@H]3CNC[C@H]2C3)c1 | 35
15 | CS(=O)(=O)Nc1cncc(-c2ccccc2O[C@@H]2C[C@H]3CNC[C@@H]2C3)c1.Cl | 182
16 | CS(=O)(=O)Nc1cncc(-c2ccccc2O[C@H]2C[C@@H]3CNC[C@H]2C3)c1.Cl (racemic) | 230
17 | Cl.NC(=O)c1cncc(-c2ccccc2O[C@H]2C[C@@H]3CNC[C@H]2C3)c1 (stereo in doubt) | 59.5

Tested on: not listed separately
Experiment: Agonist activity at human alpha6/4beta4 nicotinic receptor expressed in human HEK cells assessed as intracellular calcium […] by FLIPR
Type: functional, cell-based, HEK293
Details: Homo sapiens, HEK293; read-out: EC50

Row | SMILES | EC50 [µM]
18 | c1cncc(-c2ccccc2O[C@@H]2C[C@H]3CNC[C@@H]2C3)c1 | 0.126
19 | Cl.Oc1ccncc1-c1ccccc1O[C@H]1C[C@@H]2CNC[C@H]1C2 (racemic) | 0.005
20 | CS(=O)(=O)Nc1cncc(-c2ccccc2O[C@@H]2C[C@H]3CNC[C@@H]2C3)c1.Cl | 0.00227
21 | CS(=O)(=O)Nc1cncc(-c2ccccc2O[C@H]2C[C@@H]3CNC[C@H]2C3)c1.Cl (racemic) | 0.00315

Same assay, conditions: hek293

Row | SMILES | EC50
22 | Cl.NC(=O)c1cncc(-c2ccccc2O[C@H]2C[C@@H]3CNC[C@H]2C3)c1 (stereo in doubt) | Not Active

Tested on: MDCK
Experiment: (§1) Apparent permeability from apical to basolateral side of MDCK cells
Type: ADME, cell-based, Canis lupus familiaris
Details: dog

Row | SMILES | Papp [×10⁻⁶ cm/s]
23 | Cl.c1cncc(-c2ccccc2O[C@H]2C[C@@H]3CNC[C@H]2C3)c1 | 28.7

Tested on: not listed separately
Experiment: as §1
Type: ADME, cell-based, Canis lupus familiaris
Details: dog

Row | Papp A→B [×10⁻⁶ cm/s] | SMILES
24 | 0.84 | CS(=O)(=O)Nc1cncc(-c2ccccc2O[C@@H]2C[C@H]3CNC[C@@H]2C3)c1.Cl

Molecular target: Voltage-gated inwardly rectifying potassium channel KCNH2 (Homo sapiens, UniProt Q12809)
Experiment: Displacement of [3H]dofetilide from human ERG expressed in HEK293 cells
Type: cell-based
Details: hek293

Row | SMILES | Ki
25 | Cl.c1cncc(-c2ccccc2O[C@H]2C[C@@H]3CNC[C@H]2C3)c1 | Not Active
26 | CS(=O)(=O)Nc1cncc(-c2ccccc2O[C@@H]2C[C@H]3CNC[C@@H]2C3)c1.Cl | Not Active

Molecular target: Neuronal acetylcholine receptor; alpha4/beta2 (Homo sapiens, UniProt P17787+P43681)
Experiment: Displacement of [3H]epibatidine from alpha4beta2 nicotinic receptor expressed in human HEK293 cells
Type: cell-based
Details: hek293

Neuronal acetylcholine receptor; alpha4/beta2, sequence (P17787 whole entry): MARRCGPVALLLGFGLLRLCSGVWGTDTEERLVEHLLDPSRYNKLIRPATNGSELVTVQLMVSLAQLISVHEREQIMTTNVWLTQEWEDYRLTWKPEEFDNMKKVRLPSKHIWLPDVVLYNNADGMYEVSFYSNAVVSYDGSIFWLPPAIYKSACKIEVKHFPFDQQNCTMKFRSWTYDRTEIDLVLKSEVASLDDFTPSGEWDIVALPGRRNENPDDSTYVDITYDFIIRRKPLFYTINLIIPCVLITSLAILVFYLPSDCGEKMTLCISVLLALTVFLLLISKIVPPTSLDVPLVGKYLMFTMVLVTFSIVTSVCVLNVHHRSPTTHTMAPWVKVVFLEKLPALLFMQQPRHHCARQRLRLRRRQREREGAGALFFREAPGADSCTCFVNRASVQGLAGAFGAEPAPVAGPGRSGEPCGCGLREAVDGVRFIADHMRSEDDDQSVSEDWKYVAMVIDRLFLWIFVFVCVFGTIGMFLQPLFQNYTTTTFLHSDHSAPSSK
Neuronal acetylcholine receptor; alpha4/beta2, sequence (P43681 whole entry): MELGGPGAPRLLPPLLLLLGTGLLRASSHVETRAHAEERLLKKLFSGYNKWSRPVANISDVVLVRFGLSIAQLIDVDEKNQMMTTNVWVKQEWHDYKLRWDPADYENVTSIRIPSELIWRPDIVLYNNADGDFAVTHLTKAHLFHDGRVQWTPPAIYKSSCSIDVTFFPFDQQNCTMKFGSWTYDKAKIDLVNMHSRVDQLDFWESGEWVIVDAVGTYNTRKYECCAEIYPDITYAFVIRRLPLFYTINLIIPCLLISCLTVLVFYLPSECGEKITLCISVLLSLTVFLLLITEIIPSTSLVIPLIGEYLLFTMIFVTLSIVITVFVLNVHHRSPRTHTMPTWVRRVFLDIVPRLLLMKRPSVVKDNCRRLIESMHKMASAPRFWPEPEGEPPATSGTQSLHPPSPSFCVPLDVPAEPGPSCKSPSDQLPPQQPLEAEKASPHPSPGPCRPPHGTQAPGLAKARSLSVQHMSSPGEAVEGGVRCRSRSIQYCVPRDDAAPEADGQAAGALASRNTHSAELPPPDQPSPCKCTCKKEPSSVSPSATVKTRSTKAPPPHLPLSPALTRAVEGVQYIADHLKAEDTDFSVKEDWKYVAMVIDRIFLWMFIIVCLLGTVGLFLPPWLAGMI

Row | SMILES | Ki
27 | NC(=O)c1cncc(-c2ccccc2O[C@@H]2C[C@H]3CNC[C@@H]2C3)c1 (stereo in doubt) | Not Active

Same assay, conditions: read-out: Ki

Row | SMILES | Ki [µM]
28 | c1cncc(-c2ccccc2O[C@@H]2C[C@H]3CNC[C@@H]2C3)c1 | > 0.614
29 | Cl.Oc1ccncc1-c1ccccc1O[C@H]1C[C@@H]2CNC[C@H]1C2 (racemic) | > 0.419
30 | Cl.c1cncc(-c2ccccc2O[C@H]2C[C@@H]3CNC[C@H]2C3)c1 | > 0.832
31 | CS(=O)(=O)Nc1cncc(-c2ccccc2O[C@@H]2C[C@H]3CNC[C@@H]2C3)c1.Cl | 2.9
32 | CS(=O)(=O)Nc1cncc(-c2ccccc2O[C@H]2C[C@@H]3CNC[C@H]2C3)c1.Cl (racemic) | > 0.424
33 | Cl.NC(=O)c1cncc(-c2ccccc2O[C@H]2C[C@@H]3CNC[C@H]2C3)c1 (stereo in doubt) | > 0.963

Molecular target: T1, Neuronal acetylcholine receptor; alpha3/beta4 (Homo sapiens, UniProt P30926+P32297)
Experiment: Agonist activity at alpha3beta4 nicotinic receptor expressed in human HEK cells assessed as intracellular calcium […] by FLIPR relative to control
Type: functional, cell-based
Details: HEK293

T1 sequence (P30926 whole entry): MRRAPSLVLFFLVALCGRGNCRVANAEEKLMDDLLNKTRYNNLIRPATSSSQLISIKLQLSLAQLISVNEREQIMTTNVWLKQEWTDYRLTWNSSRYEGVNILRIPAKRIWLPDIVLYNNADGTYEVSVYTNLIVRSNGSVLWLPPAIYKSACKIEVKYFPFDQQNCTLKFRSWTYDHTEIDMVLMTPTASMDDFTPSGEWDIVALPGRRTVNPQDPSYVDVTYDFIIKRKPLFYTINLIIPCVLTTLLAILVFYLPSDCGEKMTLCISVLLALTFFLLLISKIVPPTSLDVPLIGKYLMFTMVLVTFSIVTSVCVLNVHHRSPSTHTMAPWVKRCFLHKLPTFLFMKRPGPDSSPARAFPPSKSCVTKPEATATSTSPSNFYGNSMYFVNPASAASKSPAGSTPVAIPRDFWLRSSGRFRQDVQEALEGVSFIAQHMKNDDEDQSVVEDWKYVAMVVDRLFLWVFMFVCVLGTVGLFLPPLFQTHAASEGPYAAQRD
T1 sequence (P32297 whole entry): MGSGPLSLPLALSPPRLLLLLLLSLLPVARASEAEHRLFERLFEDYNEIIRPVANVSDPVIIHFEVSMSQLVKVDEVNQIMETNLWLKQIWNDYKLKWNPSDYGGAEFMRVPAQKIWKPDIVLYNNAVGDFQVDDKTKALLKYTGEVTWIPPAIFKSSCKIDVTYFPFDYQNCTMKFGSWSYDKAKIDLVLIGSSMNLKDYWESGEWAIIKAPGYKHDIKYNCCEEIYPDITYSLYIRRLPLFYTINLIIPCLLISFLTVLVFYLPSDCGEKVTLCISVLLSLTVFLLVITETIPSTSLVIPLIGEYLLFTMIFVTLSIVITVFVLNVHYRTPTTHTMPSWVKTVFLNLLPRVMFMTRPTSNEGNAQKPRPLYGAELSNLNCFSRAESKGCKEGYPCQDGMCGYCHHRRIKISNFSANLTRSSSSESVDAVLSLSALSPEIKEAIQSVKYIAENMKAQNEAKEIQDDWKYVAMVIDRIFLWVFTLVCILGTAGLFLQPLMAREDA

Row | SMILES | Efficacy [%]
34 | c1cncc(-c2ccccc2O[C@@H]2C[C@H]3CNC[C@@H]2C3)c1 | 46
35 | Cl.Oc1ccncc1-c1ccccc1O[C@H]1C[C@@H]2CNC[C@H]1C2 (racemic) | 82
36 | CS(=O)(=O)Nc1cncc(-c2ccccc2O[C@@H]2C[C@H]3CNC[C@@H]2C3)c1.Cl | 122
37 | Cl.NC(=O)c1cncc(-c2ccccc2O[C@H]2C[C@@H]3CNC[C@H]2C3)c1 (stereo in doubt) | 102

Molecular target: T1, Neuronal acetylcholine receptor; alpha3/beta4
Experiment: Agonist activity at alpha3beta4 nicotinic receptor expressed in human HEK cells assessed as intracellular calcium efflux by FLIPR
Details: not given

Row | SMILES | EC50 [µM]
38 | Cl.Oc1ccncc1-c1ccccc1O[C@H]1C[C@@H]2CNC[C@H]1C2 (racemic) | 0.0163
39 | Cl.c1cncc(-c2ccccc2O[C@H]2C[C@@H]3CNC[C@H]2C3)c1 | < 0.1
40 | CS(=O)(=O)Nc1cncc(-c2ccccc2O[C@@H]2C[C@H]3CNC[C@@H]2C3)c1.Cl | 0.00292
41 | CS(=O)(=O)Nc1cncc(-c2ccccc2O[C@H]2C[C@@H]3CNC[C@H]2C3)c1.Cl (racemic) | 0.00299
42 | Cl.NC(=O)c1cncc(-c2ccccc2O[C@H]2C[C@@H]3CNC[C@H]2C3)c1 (stereo in doubt) | 0.0368

Molecular target: T1, Neuronal acetylcholine receptor; alpha3/beta4
Experiment: Displacement of [3H]epibatidine from alpha3beta4 nicotinic receptor expressed in human HEK293 cells
Type: cell-based
Details: not given

Row | SMILES | Ki [µM]
43 | c1cncc(-c2ccccc2O[C@@H]2C[C@H]3CNC[C@@H]2C3)c1 | 0.0169
44 | Cl.Oc1ccncc1-c1ccccc1O[C@H]1C[C@@H]2CNC[C@H]1C2 (racemic) | 0.0021
45 | Cl.c1cncc(-c2ccccc2O[C@H]2C[C@@H]3CNC[C@H]2C3)c1 | 0.00121
46 | CS(=O)(=O)Nc1cncc(-c2ccccc2O[C@@H]2C[C@H]3CNC[C@@H]2C3)c1.Cl | 0.00133
47 | NC(=O)c1cncc(-c2ccccc2O[C@@H]2C[C@H]3CNC[C@@H]2C3)c1 (stereo in doubt) | 0.496
48 | CS(=O)(=O)Nc1cncc(-c2ccccc2O[C@H]2C[C@@H]3CNC[C@H]2C3)c1.Cl (racemic) | 0.000243
49 | Cl.NC(=O)c1cncc(-c2ccccc2O[C@H]2C[C@@H]3CNC[C@H]2C3)c1 (stereo in doubt) | 0.00379

Molecular target: Neuronal acetylcholine receptor subunit alpha-7 (Homo sapiens, UniProt P36544)
Experiment: Displacement of [3H]epibatidine from alpha7 nicotinic receptor expressed in human HEK293 cells
Type: cell-based
Details: not given

Neuronal acetylcholine receptor subunit alpha-7, sequence (P36544 whole entry): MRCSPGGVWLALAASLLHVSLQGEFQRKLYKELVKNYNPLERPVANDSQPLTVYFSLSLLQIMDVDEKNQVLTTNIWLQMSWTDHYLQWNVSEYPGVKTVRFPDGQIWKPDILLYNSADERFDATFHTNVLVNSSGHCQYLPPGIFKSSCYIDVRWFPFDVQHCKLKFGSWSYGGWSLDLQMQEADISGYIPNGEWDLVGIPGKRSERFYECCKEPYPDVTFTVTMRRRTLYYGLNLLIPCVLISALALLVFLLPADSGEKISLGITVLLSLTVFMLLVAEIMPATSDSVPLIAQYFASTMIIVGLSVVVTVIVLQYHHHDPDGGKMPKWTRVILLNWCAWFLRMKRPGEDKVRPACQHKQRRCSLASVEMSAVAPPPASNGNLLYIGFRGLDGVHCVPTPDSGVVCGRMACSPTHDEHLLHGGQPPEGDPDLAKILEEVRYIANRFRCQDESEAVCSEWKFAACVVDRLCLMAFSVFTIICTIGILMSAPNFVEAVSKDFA

Row | SMILES | Ki [µM]
50 | Cl.Oc1ccncc1-c1ccccc1O[C@H]1C[C@@H]2CNC[C@H]1C2 (racemic) | > 15
51 | Cl.c1cncc(-c2ccccc2O[C@H]2C[C@@H]3CNC[C@H]2C3)c1 | 3.3
52 | CS(=O)(=O)Nc1cncc(-c2ccccc2O[C@@H]2C[C@H]3CNC[C@@H]2C3)c1.Cl | > 15
53 | CS(=O)(=O)Nc1cncc(-c2ccccc2O[C@H]2C[C@@H]3CNC[C@H]2C3)c1.Cl (racemic) | 4.75
54 | Cl.NC(=O)c1cncc(-c2ccccc2O[C@H]2C[C@@H]3CNC[C@H]2C3)c1 (stereo in doubt) | > 15

Tested on: MDCK
Experiment: (§2) Efflux ratio of permeability from basolateral to apical side over apical to basolateral side of MDCK cells expressing human MDR gene
Type: ADME, cell-based, Canis lupus familiaris
Details: dog, MDCK

Row | SMILES | Ratio
55 | Cl.c1cncc(-c2ccccc2O[C@H]2C[C@@H]3CNC[C@H]2C3)c1 | 1.65

Tested on: human MDR (P-glycoprotein)
Experiment: as §2
Type: ADME, cell-based, Canis lupus familiaris
Details: dog, MDCK-MDR1

Row | efflux ratio | SMILES
56 | 4.65 | CS(=O)(=O)Nc1cncc(-c2ccccc2O[C@@H]2C[C@H]3CNC[C@@H]2C3)c1.Cl
